Square brackets hold non-standard residues; d marks the D form. Peptide text beside a SMILES is read from it. * marks the point of attachment. FITC = O=C1OC2(c3ccc(O)cc3Oc3cc(O)ccc32)c2ccc(NC(=S)*)cc21; Phe(4-guanidino) = N=C(N)Nc1ccc(C[C@H](N)C(=O)O)cc1; Phe(3-CF3) = N[C@@H](Cc1cccc(C(F)(F)F)c1)C(=O)O; Phe(F5) = N[C@@H](Cc1c(F)c(F)c(F)c(F)c1F)C(=O)O; Phe(4-COOH) = N[C@@H](Cc1ccc(C(=O)O)cc1)C(=O)O; Bpa = N[C@@H](Cc1ccc(C(=O)c2ccccc2)cc1)C(=O)O; Phe(2-Ph) = N[C@@H](Cc1ccccc1-c1ccccc1)C(=O)O; Phe(3-Cl) = N[C@@H](Cc1cccc(Cl)c1)C(=O)O; 1Nal = N[C@@H](Cc1cccc2ccccc12)C(=O)O; 2Nal = N[C@@H](Cc1ccc2ccccc2c1)C(=O)O; Gla = N[C@@H](CC(C(=O)O)C(=O)O)C(=O)O; Phe(2-I) = N[C@@H](Cc1ccccc1I)C(=O)O; hPhe = N[C@@H](CCc1ccccc1)C(=O)O; 2Pal = N[C@@H](Cc1ccccn1)C(=O)O; Cha = N[C@@H](CC1CCCCC1)C(=O)O; Nle = CCCC[C@H](N)C(=O)O; Nva = CCC[C@H](N)C(=O)O; Abu = CC[C@H](N)C(=O)O
Biological target: T1, PRMT5-MEP50 (Homo sapiens, UniProt O14744)
T1 construct: The compounds were tested by means of FP with the full-length PRMT5-MEP50 complex; made in house
T1 sequence (O14744 whole entry): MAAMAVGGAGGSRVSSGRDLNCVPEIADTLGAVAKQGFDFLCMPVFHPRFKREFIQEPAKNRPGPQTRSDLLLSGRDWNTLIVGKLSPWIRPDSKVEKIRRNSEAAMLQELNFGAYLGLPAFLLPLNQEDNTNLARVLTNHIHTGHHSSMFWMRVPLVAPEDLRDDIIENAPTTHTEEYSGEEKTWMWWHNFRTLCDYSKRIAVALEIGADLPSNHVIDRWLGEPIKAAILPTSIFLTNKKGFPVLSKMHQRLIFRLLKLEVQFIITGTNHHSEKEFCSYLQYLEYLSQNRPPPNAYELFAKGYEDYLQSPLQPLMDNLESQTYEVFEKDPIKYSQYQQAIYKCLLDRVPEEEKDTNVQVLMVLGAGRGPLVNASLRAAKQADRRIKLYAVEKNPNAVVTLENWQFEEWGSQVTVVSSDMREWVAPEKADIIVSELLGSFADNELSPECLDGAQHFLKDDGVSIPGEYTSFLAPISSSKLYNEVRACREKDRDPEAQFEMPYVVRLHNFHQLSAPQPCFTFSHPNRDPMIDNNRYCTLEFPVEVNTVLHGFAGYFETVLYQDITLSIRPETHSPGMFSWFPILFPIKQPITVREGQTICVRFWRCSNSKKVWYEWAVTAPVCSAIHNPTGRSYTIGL
T1 sequence (Q9BQA1 whole entry partner): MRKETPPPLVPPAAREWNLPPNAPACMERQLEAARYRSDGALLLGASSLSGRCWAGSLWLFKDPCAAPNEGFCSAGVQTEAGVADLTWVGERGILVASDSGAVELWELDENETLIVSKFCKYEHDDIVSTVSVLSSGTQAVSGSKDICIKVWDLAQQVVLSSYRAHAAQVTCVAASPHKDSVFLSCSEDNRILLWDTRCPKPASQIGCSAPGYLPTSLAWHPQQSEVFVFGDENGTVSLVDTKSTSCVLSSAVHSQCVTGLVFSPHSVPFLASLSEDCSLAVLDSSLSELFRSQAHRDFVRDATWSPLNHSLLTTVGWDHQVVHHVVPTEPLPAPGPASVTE
Assay: Direct binding fluorescence polarization (FP) assay of FITC-labeled peptides
Settings: PRMT5-MEP50 Kd (µM), supplementary CSV
Description: The assay was performed in a buffer of 50 mM 4-(2-hydroxyethyl)-1-piperazineethanesulfonic acid (HEPES), 250 mM NaCl, 1 mM tris(2-carboxyethyl)phosphine (TCEP), and 0.01% (v/v) Tween 20, pH 8.0, in black, 384-well plates with a total volume of 10 μL per well. […] The plates were incubated at room temperature for 1 to 2 h and analyzed on a plate reader using 485 nm excitation and 535 nm emission wavelength. The assay was performed in triplicate.

Structure (SMILES)	Kd
CC(=O)N[C@H](C(=O)N1CCC[C@H]1C(=O)NCC(=O)N[C@@H](CCC(N)=O)C(=O)N[C@@H](Cc1ccc(C(=O)c2ccccc2)cc1)C(=O)N[C@@H](CC(=O)O)C(=O)N[C@@H](CC(=O)O)C(=O)N[C@@H](C)C(=O)N[C@@H](CC(=O)O)C(=O)N[C@@H](CCCCNC(=S)Nc1ccc2c(c1)C(=O)OC21c2ccc(O)cc2Oc2cc(O)ccc21)C(N)=O)C(C)C [Compound S23] (Ac-VPGQ[Bpa]DDADK(FITC)-NH2)	0.752 ± 0.044 µM

Same assay, conditions: supplementary CSV, read-out: PRMT5-MEP50 Kd

Kd	Structure (SMILES)
> 1 µM	CC(=O)N[C@H](C(=O)N1CCC[C@H]1C(=O)NCC(=O)N[C@@H](CCC(N)=O)C(=O)N[C@@H](Cc1c(F)c(F)c(F)c(F)c1F)C(=O)N[C@@H](CC(=O)O)C(=O)N[C@@H](CC(=O)O)C(=O)N[C@@H](C)C(=O)N[C@@H](CC(=O)O)C(=O)N[C@@H](CCCCNC(=S)Nc1ccc2c(c1)C(=O)OC21c2ccc(O)cc2Oc2cc(O)ccc21)C(N)=O)C(C)C [Compound S13] (Ac-VPGQ[Phe(F5)]DDADK(FITC)-NH2)
> 1 µM	CC(=O)N[C@H](C(=O)N1CCC[C@H]1C(=O)NCC(=O)N[C@@H](CCC(N)=O)C(=O)N[C@@H](Cc1ccccc1I)C(=O)N[C@@H](CC(=O)O)C(=O)N[C@@H](CC(=O)O)C(=O)N[C@@H](C)C(=O)N[C@@H](CC(=O)O)C(=O)N[C@@H](CCCCNC(=S)Nc1ccc2c(c1)C(=O)OC21c2ccc(O)cc2Oc2cc(O)ccc21)C(N)=O)C(C)C [Compound S14] (Ac-VPGQ[Phe(2-I)]DDADK(FITC)-NH2)
> 1 µM	CC(=O)N[C@H](C(=O)N1CCC[C@H]1C(=O)NCC(=O)N[C@@H](CCC(N)=O)C(=O)N[C@@H](Cc1cccc(Cl)c1)C(=O)N[C@@H](CC(=O)O)C(=O)N[C@@H](CC(=O)O)C(=O)N[C@@H](C)C(=O)N[C@@H](CC(=O)O)C(=O)N[C@@H](CCCCNC(=S)Nc1ccc2c(c1)C(=O)OC21c2ccc(O)cc2Oc2cc(O)ccc21)C(N)=O)C(C)C [Compound S15] (Ac-VPGQ[Phe(3-Cl)]DDADK(FITC)-NH2)
> 1 µM	CC(=O)N[C@H](C(=O)N1CCC[C@H]1C(=O)NCC(=O)N[C@@H](CCC(N)=O)C(=O)N[C@@H](Cc1cccc(C(F)(F)F)c1)C(=O)N[C@@H](CC(=O)O)C(=O)N[C@@H](CC(=O)O)C(=O)N[C@@H](C)C(=O)N[C@@H](CC(=O)O)C(=O)N[C@@H](CCCCNC(=S)Nc1ccc2c(c1)C(=O)OC21c2ccc(O)cc2Oc2cc(O)ccc21)C(N)=O)C(C)C [Compound S16] (Ac-VPGQ[Phe(3-CF3)]DDADK(FITC)-NH2)
> 1 µM	CC(=O)N[C@H](C(=O)N1CCC[C@H]1C(=O)NCC(=O)N[C@@H](CCC(N)=O)C(=O)N[C@@H](Cc1ccccn1)C(=O)N[C@@H](CC(=O)O)C(=O)N[C@@H](CC(=O)O)C(=O)N[C@@H](C)C(=O)N[C@@H](CC(=O)O)C(=O)N[C@@H](CCCCNC(=S)Nc1ccc2c(c1)C(=O)OC21c2ccc(O)cc2Oc2cc(O)ccc21)C(N)=O)C(C)C [Compound S17] (Ac-VPGQ[2Pal]DDADK(FITC)-NH2)
> 1 µM	CC(=O)N[C@H](C(=O)N1CCC[C@H]1C(=O)NCC(=O)N[C@@H](CCC(N)=O)C(=O)N[C@@H](Cc1ccc(O)cc1)C(=O)N[C@@H](CC(=O)O)C(=O)N[C@@H](CC(=O)O)C(=O)N[C@@H](C)C(=O)N[C@@H](CC(=O)O)C(=O)N[C@@H](CCCCNC(=S)Nc1ccc2c(c1)C(=O)OC21c2ccc(O)cc2Oc2cc(O)ccc21)C(N)=O)C(C)C [Compound S18] (Ac-VPGQYDDADK(FITC)-NH2)
> 1 µM	CC(=O)N[C@H](C(=O)N1CCC[C@H]1C(=O)NCC(=O)N[C@@H](CCC(N)=O)C(=O)N[C@@H](Cc1ccc(C(=O)O)cc1)C(=O)N[C@@H](CC(=O)O)C(=O)N[C@@H](CC(=O)O)C(=O)N[C@@H](C)C(=O)N[C@@H](CC(=O)O)C(=O)N[C@@H](CCCCNC(=S)Nc1ccc2c(c1)C(=O)OC21c2ccc(O)cc2Oc2cc(O)ccc21)C(N)=O)C(C)C [Compound S19] (Ac-VPGQ[Phe(4-COOH)]DDADK(FITC)-NH2)
> 1 µM	CC(=O)N[C@H](C(=O)N1CCC[C@H]1C(=O)NCC(=O)N[C@@H](CCC(N)=O)C(=O)N[C@@H](Cc1ccc(N=C(N)N)cc1)C(=O)N[C@@H](CC(=O)O)C(=O)N[C@@H](CC(=O)O)C(=O)N[C@@H](C)C(=O)N[C@@H](CC(=O)O)C(=O)N[C@@H](CCCCNC(=S)Nc1ccc2c(c1)C(=O)OC21c2ccc(O)cc2Oc2cc(O)ccc21)C(N)=O)C(C)C [Compound S20] (Ac-VPGQ[Phe(4-guanidino)]DDADK(FITC)-NH2)
> 1 µM	CC(=O)N[C@H](C(=O)N1CCC[C@H]1C(=O)NCC(=O)N[C@@H](CCC(N)=O)C(=O)N[C@@H](CCc1ccccc1)C(=O)N[C@@H](CC(=O)O)C(=O)N[C@@H](CC(=O)O)C(=O)N[C@@H](C)C(=O)N[C@@H](CC(=O)O)C(=O)N[C@@H](CCCCNC(=S)Nc1ccc2c(c1)C(=O)OC21c2ccc(O)cc2Oc2cc(O)ccc21)C(N)=O)C(C)C [Compound S21] (Ac-VPGQ[hPhe]DDADK(FITC)-NH2)
> 1 µM	CC(=O)N[C@H](C(=O)N1CCC[C@H]1C(=O)NCC(=O)N[C@@H](CCC(N)=O)C(=O)N[C@@H](Cc1ccccc1-c1ccccc1)C(=O)N[C@@H](CC(=O)O)C(=O)N[C@@H](CC(=O)O)C(=O)N[C@@H](C)C(=O)N[C@@H](CC(=O)O)C(=O)N[C@@H](CCCCNC(=S)Nc1ccc2c(c1)C(=O)OC21c2ccc(O)cc2Oc2cc(O)ccc21)C(N)=O)C(C)C [Compound S22] (Ac-VPGQ[Phe(2-Ph)]DDADK(FITC)-NH2)
> 1 µM	CC(=O)N[C@H](C(=O)N1CCC[C@H]1C(=O)NCC(=O)N[C@@H](CCC(N)=O)C(=O)N[C@@H](Cc1ccc2ccccc2c1)C(=O)N[C@@H](CC(=O)O)C(=O)N[C@@H](CC(=O)O)C(=O)N[C@@H](C)C(=O)N[C@@H](CC(=O)O)C(=O)N[C@@H](CCCCNC(=S)Nc1ccc2c(c1)C(=O)OC21c2ccc(O)cc2Oc2cc(O)ccc21)C(N)=O)C(C)C [Compound S24] (Ac-VPGQ[2Nal]DDADK(FITC)-NH2)
> 1 µM	CC(=O)N[C@H](C(=O)N1CCC[C@H]1C(=O)NCC(=O)N[C@@H](CCC(N)=O)C(=O)N[C@@H](Cc1cccc2ccccc12)C(=O)N[C@@H](CC(=O)O)C(=O)N[C@@H](CC(=O)O)C(=O)N[C@@H](C)C(=O)N[C@@H](CC(=O)O)C(=O)N[C@@H](CCCCNC(=S)Nc1ccc2c(c1)C(=O)OC21c2ccc(O)cc2Oc2cc(O)ccc21)C(N)=O)C(C)C [Compound S25] (Ac-VPGQ[1Nal]DDADK(FITC)-NH2)
> 1 µM	CC(=O)N[C@H](C(=O)N1CCC[C@H]1C(=O)NCC(=O)N[C@@H](CCC(N)=O)C(=O)N[C@@H](Cc1ccccc1)C(=O)N[C@@H](CC(=O)O)C(=O)N[C@@H](CC(C(=O)O)C(=O)O)C(=O)N[C@@H](C)C(=O)N[C@@H](CC(=O)O)C(=O)N[C@@H](CCCCNC(=S)Nc1ccc2c(c1)C(=O)OC21c2ccc(O)cc2Oc2cc(O)ccc21)C(N)=O)C(C)C [Compound S26] (Ac-VPGQFD[Gla]ADK(FITC)-NH2)
> 1 µM	CC[C@H](NC(=O)[C@H](CC(=O)O)NC(=O)[C@H](CC(=O)O)NC(=O)[C@H](Cc1ccccc1)NC(=O)[C@H](CCC(N)=O)NC(=O)CNC(=O)[C@@H]1CCCN1C(=O)[C@@H](NC(C)=O)C(C)C)C(=O)N[C@@H](CC(=O)O)C(=O)N[C@@H](CCCCNC(=S)Nc1ccc2c(c1)C(=O)OC21c2ccc(O)cc2Oc2cc(O)ccc21)C(N)=O [Compound S27] (Ac-VPGQFDD[Abu]DK(FITC)-NH2)
> 1 µM	CCC[C@H](NC(=O)[C@H](CC(=O)O)NC(=O)[C@H](CC(=O)O)NC(=O)[C@H](Cc1ccccc1)NC(=O)[C@H](CCC(N)=O)NC(=O)CNC(=O)[C@@H]1CCCN1C(=O)[C@@H](NC(C)=O)C(C)C)C(=O)N[C@@H](CC(=O)O)C(=O)N[C@@H](CCCCNC(=S)Nc1ccc2c(c1)C(=O)OC21c2ccc(O)cc2Oc2cc(O)ccc21)C(N)=O [Compound S28] (Ac-VPGQFDD[Nva]DK(FITC)-NH2)
> 1 µM	CCCC[C@H](NC(=O)[C@H](CC(=O)O)NC(=O)[C@H](CC(=O)O)NC(=O)[C@H](Cc1ccccc1)NC(=O)[C@H](CCC(N)=O)NC(=O)CNC(=O)[C@@H]1CCCN1C(=O)[C@@H](NC(C)=O)C(C)C)C(=O)N[C@@H](CC(=O)O)C(=O)N[C@@H](CCCCNC(=S)Nc1ccc2c(c1)C(=O)OC21c2ccc(O)cc2Oc2cc(O)ccc21)C(N)=O [Compound S29] (Ac-VPGQFDD[Nle]DK(FITC)-NH2)
> 1 µM	CC(=O)N[C@H](C(=O)N1CCC[C@H]1C(=O)NCC(=O)N[C@@H](CCC(N)=O)C(=O)N[C@@H](Cc1ccccc1)C(=O)N[C@@H](CC(=O)O)C(=O)N[C@@H](CC(=O)O)C(=O)N[C@@H](CC1CCCCC1)C(=O)N[C@@H](CC(=O)O)C(=O)N[C@@H](CCCCNC(=S)Nc1ccc2c(c1)C(=O)OC21c2ccc(O)cc2Oc2cc(O)ccc21)C(N)=O)C(C)C [Compound S30] (Ac-VPGQFDD[Cha]DK(FITC)-NH2)
> 1 µM	CC(=O)N[C@H](C(=O)N1CCC[C@H]1C(=O)NCC(=O)N[C@@H](CCC(N)=O)C(=O)N[C@@H](Cc1ccccc1)C(=O)N[C@@H](CC(=O)O)C(=O)N[C@@H](CC(=O)O)C(=O)N[C@@H](CO)C(=O)N[C@@H](CC(=O)O)C(=O)N[C@@H](CCCCNC(=S)Nc1ccc2c(c1)C(=O)OC21c2ccc(O)cc2Oc2cc(O)ccc21)C(N)=O)C(C)C [Compound S31] (Ac-VPGQFDDSDK(FITC)-NH2)
> 1 µM	CC(=O)N[C@H](C(=O)N1CCC[C@H]1C(=O)NCC(=O)N[C@@H](CCC(N)=O)C(=O)N[C@@H](Cc1ccccc1)C(=O)N[C@@H](CC(=O)O)C(=O)N[C@@H](CC(=O)O)C(=O)N[C@@H](C)C(=O)N[C@@H](Cc1ccc(O)cc1)C(=O)N[C@@H](CCCCNC(=S)Nc1ccc2c(c1)C(=O)OC21c2ccc(O)cc2Oc2cc(O)ccc21)C(N)=O)C(C)C [Compound S32] (Ac-VPGQFDDAYK(FITC)-NH2)
> 1 µM	CC(=O)N[C@H](C(=O)N1CCC[C@H]1C(=O)NCC(=O)N[C@@H](CCC(N)=O)C(=O)N[C@@H](Cc1ccccc1)C(=O)N[C@@H](CC(=O)O)C(=O)N[C@@H](CC(=O)O)C(=O)N[C@@H](C)C(=O)N[C@@H](Cc1c[nH]c2ccccc12)C(=O)N[C@@H](CCCCNC(=S)Nc1ccc2c(c1)C(=O)OC21c2ccc(O)cc2Oc2cc(O)ccc21)C(N)=O)C(C)C [Compound S33] (Ac-VPGQFDDAWK(FITC)-NH2)

— paper PMC9706563, “Development of Macrocyclic PRMT5–Adaptor Protein Interaction Inhibitors” (Journal of Medicinal Chemistry, 2022)
